Like-named read-outs stand apart in the source and are kept apart here.
What was measured:
apple scab = assay: effectiveness against apple scab; type: in vivo; settings: 400 parts per million
[1] = test system: ADP induced aggregation of blood platelets (rat platelet rich plasma); assay: inhibition of ADP induced platelet aggregation in vitro (rat platelet rich plasma, change in optical density; Born); type: cell-based; settings: for IC50: 10 min, read-out: IC50 ADP (concentration at which ADP induced platelet aggregation is inhibited by 50%)
Protocol: Platelet aggregation was initiated in vitro by 0.125 to 0.25 mg/ml of ADP. Rat blood was collected into 3.0% trisodium citrate solution (1:10) by cardiac puncture under methoxyfurane anesthesia. The blood was centrifuged at 120 g for 10 minutes at room temperature and the supernatant platelet rich plasma was removed and diluted with lactated Ringer's solution containing the pyridazine aggregation inhibiting agent (1.0:1.5). Samples of 1.0 ml were pipetted into plastic test tubes and incubated for 10 minutes. Plastic equipment was used for all procedures. The concentration of the pyridazine compound in micromoles inhibiting ADP aggregation by 50% (IC50) was determined using changes in optical density as an indicium of platelet aggregation.
*Concentration in micromoles at which ADP induced platelet aggregation is […]

rootknot nematode = assay: killing and control of rootknot nematode; type: in vivo; settings: 2.4 pounds per 100 cu. ft. of soil
tobacco black root rot = assay: fungicide, killing and control of tobacco black root rot; type: in vivo; settings: 25 parts per million
[2] = test system: platelet aggregation / emboli formed in response to ADP; assay: protection of mice from ADP challenge (inclined screen); type: in vivo; settings: of ten mice; 60 mgs per kilogram orally; ADP via tail vein one hour after
Protocol: Emboli formed in the vascular system of mice in response to the administration of ADP cause a stroke-like response that prevents mice from staying on an inclined screen. To illustrate the platelet aggregation inhibition effect of the aminoalkylthiopyridazines, ten mice were dosed orally with 60 mgs per kilogram of body weight of the compound 6-chloro-3-(2-diisopropylamino)ethylthio)pyridazine. One hour after compound administration, the mice were challenged with ADP (0.05 M mole/kg) by injection via the tail vein and placed on an inclined screen. The unprotected control mice were unable to maintain their position on the screen.

[3] = rat platelet rich plasma, 0.125 to 0.25 mg/ml of ADP, incubated 10 minutes

| Structure (SMILES) | IC50 [1, 3] [µM] | further results |
| --- | --- | --- |
| c1cc(SCCN2CCOCC2)nnc1SCCN1CCOCC1 [3,6-Bis(2-(4-morpholinyl)ethylthio)pyridazine] | 13800 | effective against apple scab (apple scab): 90% |
| Clc1ccc(SCCN2CCCCC2)nn1 [3-Chloro-6-(2-(1-piperidinyl)ethylthio)pyridazine] | 3300 |  |
| Clc1ccc(SCCN2CCOCC2)nn1 [3-Chloro-6-(2-(4-morpholinyl)ethylthio)pyridazine] |  | effective in the killing and control of rootknot nematode (rootknot nematode): 90%; IC50 ([1]; Rattus norvegicus, Platelet): 2600 µM |
| Clc1ccc(SCCN2CCCCCC2)nn1 [3-Chloro-6-(2-(hexamethyleneimino)ethylthio)pyridazine] | 2430 |  |
| Clc1ccc(SCCCN2CCOCC2)nn1 [3-Chloro-6-(3-(4-morpholinyl)propylthio)pyridazine] | 10500 |  |
| CCN(CC)CCCSc1ccc(Cl)nn1 [3-Chloro-6-(3-(diethylamino)propylthio)pyridazine] | 3710 | effective as a fungicide in the killing and control of tobacco black root rot (tobacco black root rot): 100% |
| CN(C)CCCSc1ccc(Cl)nn1 [3-Chloro-6-(3-dimethylamino)propylthio)pyridazinium methane sulfonate] | 2400 |  |
| CC(C)N(CCSc1ccc(Cl)nn1)C(C)C [6-Chloro-3-(2-(diisopropylamino)ethylthio)pyridazine] | 140 | mice protected from the ADP challenge and remaining on the screen [2]: 10 mice; platelet aggregation inhibiting activity (in words) ([1]; Table I data): highly effective |
